Test results from patent US3947408A, “Pyrrolo-benzodiazepines, method of preparation and method of use” (American Cyanamid Company, priority 1974, dated 1976).
Structures can show the parent of a compound that is named as a salt.

System: clonic seizures caused by pentylenetetrazole
Experiment: Protection against clonic seizures caused by pentylenetetrazole in rats (oral)
Assay type: in vivo
Conditions: Rattus norvegicus, rats (at least 5 per group), 2% starch vehicle, pentylenetetrazole 21 to 23 mg./kg. intravenously at estimated time of peak effect, protection of 50% of animals, read-out: MEDIAN EFFECTIVE ORAL DOSE ED50
Protocol: The anti-anxiety properties of the compounds of the present invention have been established in a test which indicates anxiolytic activity by a measure of protection from convulsions resulting from the administration of pentylenetetrazole. Graded dose levels of the compounds of this invention are administered orally, in a 2% starch vehicle, to groups of at least 5 rats. At the estimated time of peak effect, the rats are treated intravenously with pentylenetetrazole at a dose of 21 to 23 mg./kg. of body weight. This dose is estimated to cause clonic seizures in 99% of unprotected rats. The effective dose of the test compound for protection of 50% of the animals is calculated by the method of D. H. Finney in Statistical Methods in Biological Assay, Second Edition, Hafner Publishing Co., New York, 1964, pp. 456- 457. Representative results are given in the table which follows in comparison with Librium (chlordiazepoxide) or Valium (diazepam), all of which were tested in exactly the same manner. It has been reported [R. T. Hill and D. H. Tedeschi, "Animal Testing and Screening Procedures in Evaluating Psychotropic Drugs" in An Introduction to Psychopharmacology, Eds. R. R. Rech and K. E. Moore, Raven Press, New York, pp. 237-288 (1971)] that there is a high degree of correlation between antagonism of pentylenetetrazole seizures in rats and antianxiety effects in higher warm-blooded animals.

Compared with `Cc1ccc2c(c1)CN1CCC[C@H]1C(=O)N2C` [Dextro 7,10-dimethyl-1,2,3,5,10,11a-hexahydro-11H-pyrrolo[2,1-c][1,4]benzodiazepin-11-one hydrochloride], `CN1C(=O)C2CCCN2Cc2cc(Cl)ccc21` (racemic) [Racemic 7-chloro-1,2,3,5,10,11a-hexahydro-10-methyl-11H-pyrrolo[2,1-c][1,4]benzodiazepin-11-one hydrochloride] is 2.8-fold higher in ED50: 32 mg/kg for the first, 91 mg/kg for the second.

`CNC1=Nc2ccc(Cl)cc2C(c2ccccc2)=[N+]([O-])C1` [Librium (chlordiazepoxide), chlordiazepoxide, reference compound] and `CN1C(=O)CN=C(c2ccccc2)c2cc(Cl)ccc21` [Valium (diazepam), diazepam, reference compound] are within 1.5-fold of each other in ED50: 2.5 mg/kg for the first, 1.8 mg/kg for the second.

`CN1C(=O)[C@@H]2CCCN2Cc2cc(Cl)ccc21` [Dextro 7-chloro-1,2,3,5,10,11a-hexahydro-10-methyl-11H-pyrrolo[2,1-c][1,4]benzodiazepin-11-one hydrochloride] and `CN1C(=O)C2CCCN2Cc2ccccc21` (racemic) [Racemic 1,2,3,5,10,11a-hexahydro-10-methyl-11H-pyrrolo[2,1-c][1,4]benzodiazepin-11-one hydrochloride] are within 1.5-fold of each other in ED50: 80 mg/kg for the first, 66 mg/kg for the second.

For `CN1C(=O)[C@@H]2CCCN2Cc2ccccc21` [Dextro 1,2,3,5,10,11a-hexahydro-10-methyl-11H-pyrrolo[2,1-c][1,4]-benzodiazepin-11-one hydrochloride], the ED50 was 15 mg/kg.
